Results on 10 molecules are retold here after patent publication US20260284005A1, “INHIBITING MITOGEN-ACTIVATED PROTEIN (MAP)/ERK KINASE (MEK)1 AND MEK2 AND RELATED METHODS OF TREATMENT” (priority 2023, published 2026).

Where two headings read alike, the source gives them in different places.

A word on the IC50: it is the midpoint of a concentration-inhibition curve.

The test system of data set [1] is tumor models (cell lines). As to the kind of experiment: Humanized 3D tumor growth assay (3D-TGA), tumor model panel / other cell lines. The format is cell-based, human. To be noted: Homo sapiens, agent alone. The source says: The humanized 3D tumor growth assay (3D-TGA) is an extracellular matrix (ECM)-based, 3D tumor model that more faithfully mimics the human tumor microenvironment (TME) with the goal of improving translational fidelity to patients. See Casneuf T, et al., “Interleukin-6 is a potential therapeutic target in interleukin-6 dependent, estrogen receptor-α-positive breast cancer,” Breast Cancer (Dove Med Press). […] MEK inhibition in the 3D-TGA. […]
All cell lines were validated by IDEXX upon receipt and assay setup. See Appendix for full cell line list.
(§1) Cells were seeded in 3D cultures in a black-walled, clear-bottom, non-tissue culture treated, 384-well plate (3000 cells per well) using a 1:1 mixture of BME and a custom media and grown in a humidified incubator with 5% CO2 and 5% O2, which approximates capillary levels for each gas, at 37° C. […] Cells were assessed for cell proliferation using EdU cell proliferation staining. […] Cells were permeabilized with 30 μL of filtered 0.5% Triton X-100 in PBS for 20 minutes at room temperature. Samples were washed twice gently with PBS. Cells were stained utilizing click-iT chemistry by adding 20 μL of staining cocktail containing 2 mM copper sulfate, 8 μM sulfo-Cy5-azide, and 20 mg/ml ascorbic acid in PBS and incubated 30-60 minutes at room temperature in dark. […] Plates were imaged with the Molecular Devices Pico ImageXpress. Images were segmented and percentage of cells with EdU incorporation was quantified to calculate antiproliferative effects of the drugs.
(§2) Five (5)-ethynyl-2′-deoxyuridine (EdU) data was represented as percentage EdU positive cells quantified by high content imaging from the Molecular Devices ImageXpress® Pico.

Data set [2] deals with CORL23 cells. As to the kind of experiment: 3D-TGA. In kind it is cell-based. To be noted: Homo sapiens, COR-L23, CORL23, LUN, KRAS G12V, ALK R317T, agent alone. As for the experimental part:
as §1, §2

Data set [3] deals with NCI-H2087 cells. Nature of the data set: 3D-TGA. In kind it is cell-based. The conditions noted are these: Homo sapiens, NCI-H2087, LUN, NRAS Q61K, ALK S553A, agent alone. As for the experimental part:
as §1, §2

The test system of data set [4] is CL-40 cells. Nature of the data set: 3D-TGA. In kind it is cell-based, human. To be noted: Homo sapiens, read-out: IC50 in 3D-TGA, agent alone. As for the experimental part:
as §1, §2

Data set [5] concerns HT-29 cells. As to the kind of experiment: 3D-TGA. The format is cell-based, human. The conditions noted are these: Homo sapiens, HT-29, read-out: IC50 in 3D-TGA, agent alone. The method, then:
as §1, §2

For data set [6], the system named is LS1034 cells. Nature of the data set: 3D-TGA. In kind it is cell-based, human. To be noted: Homo sapiens, LS-1034; LS1034, COL, KRAS A146T; read-out: IC50 in 3D-TGA, agent alone. As for the experimental part: as §1, §2
In data set [7] the test system is PANC-1 cells. Nature of the data set: 3D-TGA. The format is cell-based, human. The conditions noted are these: Homo sapiens; PANC-1, PAN, KRAS G12D; read-out: IC50 in 3D-TGA, agent alone. As for the experimental part:
as §1, §2

The test system of data set [8] is RCM-1 cells. Nature of the data set: 3D-TGA. The format is cell-based, human. To be noted: Homo sapiens, RCM-1, read-out: IC50 in 3D-TGA, agent alone. As for the experimental part:
as §1, §2

The test system of data set [9] is SNU-1197 cells. Nature of the data set: 3D-TGA. In kind it is cell-based, human. The conditions noted are these: Homo sapiens, read-out: IC50 in 3D-TGA, agent alone. As for the experimental part:
as §1, §2

Data set [10] deals with SW626 cells. Nature of the data set: 3D-TGA. In kind it is cell-based, human. To be noted: Homo sapiens, SW626, read-out: IC50 in 3D-TGA, agent alone. As for the experimental part: as §1, §2
Data set [11] relates to A549 cells. Nature of the data set: 3D-TGA. To be noted: Homo sapiens; A549, LUN, KRAS G12S; agent alone; read-out: IC50 in 3D-TGA Talazoparib. In kind it is cell-based, human. The method, then: as §1, §2
In data set [12] the test system is NCI-H1792 cells. Nature of the data set: 3D-TGA. In kind it is cell-based, human. The conditions noted are these: Homo sapiens, NCI-H1792, LUN, KRAS G12C.
For data set [13], the system named is HCC-44 cells. Nature of the data set: 3D-TGA. In kind it is cell-based, human. To be noted: Homo sapiens, HCC44, read-out: IC50 in 3D-TGA, KRAS G12C inhibitor alone. The method, then:
as §1, §2

Data set [14] has as its system LU99 cells. Nature of the data set: 3D-TGA. In kind it is cell-based, human. To be noted: Homo sapiens, Lu-99, read-out: IC50 in 3D-TGA, KRAS G12C inhibitor alone. As for the experimental part:
as §1, §2

In data set [15] the test system is NCI-H2030 cells. Nature of the data set: 3D-TGA. In kind it is cell-based, human. To be noted: Homo sapiens, NCI-H2030, read-out: IC50 in 3D-TGA, KRAS G12C inhibitor alone. As for the experimental part:
as §1, §2

Data set [16] relates to NCI-H2122 cells. Nature of the data set: 3D-TGA. In kind it is cell-based, human. To be noted: Homo sapiens, NCI-H2122, read-out: IC50 in 3D-TGA, KRAS G12C inhibitor alone. As for the experimental part:
as §1, §2

The subject of data set [17] is NCI-H358 cells. Nature of the data set: 3D-TGA. In kind it is cell-based, human. The conditions noted are these: Homo sapiens; NCI-H358, LUN, KRAS G12C; read-out: IC50 in 3D-TGA, KRAS G12C inhibitor alone.
Data set [18] relates to MIA PaCa-2 (KRAS G12C) pancreatic xenograft. Nature of the data set: MIA PaCa-2 pancreatic xenograft tumor model. The format is in vivo, athymic nude mice. To be noted: MIA PaCa-2 KRAS G12C xenograft, 21 days. The source says:
Gemcitabine (antimetabolite), nab-paclitaxel (taxane) and fluorouracil (5-FU; antimetabolite) were commercially purchased. All studies started with 12 animals, per group. Mice within specific groups randomized for cross-over of treatments (≥day 42). […] Additive models: MIA PaCa-2, PA-TU-8988S, CFPAC-1, HPAF-II, Panc 03.27, PSN-1, Panc 10.05, Capan-1, HPAC, PANC-1.

[19] abbreviates: read-out: IC50 in 3D-TGA Brigatinib.
[20] abbreviates: read-out: IC50 in 3D-TGA Lorlatinib.
The mark [21] stands for this setting: read-out: IC50 in 3D-TGA, KRAS G12C inhibitor alone.

For `Nc1ncn([C@@H]2O[C@H](CO)[C@@H](O)[C@H]2O)c(=O)n1` [Azacitidine, azacitidine], the IC50 in [1] (HL-60, HL-60, AML, NRAS Q61L, read-out: IC50 in 3D-TGA Azacitidine) is 1000 nM; in data set [1] (KHM-1B, MM, NRAS G12C/KRAS G12C, read-out: IC50 in 3D-TGA Azacitidine), 100 to 500 nM; in [1] (NB4, AML, KRAS Amp, read-out: IC50 in 3D-TGA Azacitidine), 1000 nM; in data set [1] (OCI-AML-3, OCI-AML3, AML, NRAS Q61L, read-out: IC50 in 3D-TGA Azacitidine), 1000 nM; in [1] (PL-21, PL-21, AML, KRAS A146V, read-out: IC50 in 3D-TGA Azacitidine) it was 500 to 1000 nM; in data set [1] (TF-1, AML, NRAS Q61P, read-out: IC50 in 3D-TGA Azacitidine) it was 1000 nM. Besides, in data set [1] (THP-1, THP-1, AML, NRAS G12D, read-out: IC50 in 3D-TGA Azacitidine), the IC50 is 1000 nM.
Take `CC(C)C[C@H](NC(=O)[C@H](Cc1ccccc1)NC(=O)c1cnccn1)B(O)O` [Bortezomib, bortezomib]: the IC50 is 500 to 1000 nM in data set [1] (KHM-1B, MM, NRAS G12C/KRAS G12C, read-out: IC50 in 3D-TGA Bortezomib); 1000 nM in data set [1] (L-363, L-363, MM, NRAS Q61H, read-out: IC50 in 3D-TGA Bortezomib); 50 to 100 nM in data set [1] (MM1.S, MM.1S, MM, KRAS G12A, read-out: IC50 in 3D-TGA Bortezomib); 100 to 500 nM in data set [1] (RPMI-8226, RPMI-8226, MM, KRAS G12A, read-out: IC50 in 3D-TGA Bortezomib).
As to `COc1cc(N2CCC(N3CCN(C)CC3)CC2)ccc1Nc1ncc(Cl)c(Nc2ccccc2P(C)(C)=O)n1` [Brigatinib, brigatinib], the IC50 in data set [2] (setting [19]) and in data set [3] (setting [19]) was 1000 nM in each case.
Regarding `COc1cccc2c1C(=O)c1c(O)c3c(c(O)c1C2=O)C[C@@](O)(C(C)=O)C[C@@H]3O[C@H]1C[C@H](N)[C@H](O)[C@H](C)O1` [Daunorubicin, daunorubicin], the IC50 came out at 67.6 nM in data set [1] (HL-60, HL-60, AML, NRAS Q61L, read-out: IC50 in 3D-TGA Daunorubicin); 63.2 nM in data set [1] (NB4, AML, KRAS Amp, read-out: IC50 in 3D-TGA Daunorubicin); 28 nM in data set [1] (OCI-AML-3, OCI-AML3, AML, NRAS Q61L, read-out: IC50 in 3D-TGA Daunorubicin); 64.1 nM in [1] (PL-21, PL-21, AML, KRAS A146V, read-out: IC50 in 3D-TGA Daunorubicin); 56.2 nM in data set [1] (TF-1, AML, NRAS Q61P, read-out: IC50 in 3D-TGA Daunorubicin); 119 nM in data set [1] (THP-1, THP-1, AML, NRAS G12D, read-out: IC50 in 3D-TGA Daunorubicin).
`Nc1ncn([C@H]2C[C@H](O)[C@@H](CO)O2)c(=O)n1` [Decitabine, decitabine]: the IC50 in [1] (HL-60, HL-60, AML, NRAS Q61L, read-out: IC50 in 3D-TGA Decitabine) was 1000 nM; in data set [1] (NB4, AML, KRAS Amp, read-out: IC50 in 3D-TGA Decitabine), 1000 nM; in [1] (OCI-AML-3, OCI-AML3, AML, NRAS Q61L, read-out: IC50 in 3D-TGA Decitabine) it was 1000 nM; in data set [1] (PL-21, PL-21, AML, KRAS A146V, read-out: IC50 in 3D-TGA Decitabine), 1000 nM; in [1] (TF-1, AML, NRAS Q61P, read-out: IC50 in 3D-TGA Decitabine), 50 nM; in data set [1] (THP-1, THP-1, AML, NRAS G12D, read-out: IC50 in 3D-TGA Decitabine), 1000 nM.
For `C[C@H]1Oc2cc(cnc2N)-c2c(nn(C)c2C#N)CN(C)C(=O)c2ccc(F)cc21` [Lorlatinib], the IC50 in data set [2] (setting [20]) and in [3] (setting [20]) was 1000 nM throughout.
As to `CC(=O)O[C@H]1C(=O)[C@@]2(C)[C@H]([C@H](OC(=O)c3ccccc3)[C@]3(O)C[C@H](OC(=O)[C@H](O)[C@@H](NC(=O)c4ccccc4)c4ccccc4)C(C)=C1C3(C)C)[C@]1(OC(C)=O)CO[C@@H]1C[C@@H]2O` [Paclitaxel, paclitaxel], the concentration for half-maximal inhibition (IC50) was less than 50 nM in [4]; less than 50 nM in data set [5]; 1000 nM in [6]; 1000 nM in data set [7]; 100 to 500 nM in data set [8]; 100 to 500 nM in [9]. The IC50 in data set [10] is less than 50 nM.
`Cn1ncnc1[C@H]1c2n[nH]c(=O)c3cc(F)cc(c23)N[C@@H]1c1ccc(F)cc1` [Talazoparib, talazoparib]: the IC50 in data set [1] (HL-60, HL-60, AML, NRAS Q61L, read-out: IC50 in 3D-TGA Talazoparib) was more than 1000 nM; in [1] (NCI-H1734, NCI-H1734, LUN, KRAS G13C, read-out: IC50 in 3D-TGA Talazoparib) it was more than 1000 nM; in data set [1] (THP-1, THP-1, AML, NRAS G12D, read-out: IC50 in 3D-TGA Talazoparib), more than 1000 nM; in [11], more than 1000 nM; in data set [12] (agent alone, read-out: IC50 in 3D-TGA Talazoparib) it was 500 to 1000 nM.
As for `C=C(F)C(=O)N1CCN(c2nc(OC[C@@H]3CCCN3C)nc3c2CCN(c2cccc4cccc(Cl)c24)C3)C[C@@H]1CC#N` [adagrasib], the IC50 is more than 1000 nM in [13]; more than 1000 nM in [14]; less than 50 nM in data set [15]; more than 1000 nM in data set [16]; 50 to 100 nM in data set [17]; more than 1000 nM in data set [12] (setting [21]).
As to `C=CC(=O)N1CCN(c2nc(=O)n(-c3c(C)ccnc3C(C)C)c3nc(-c4c(O)cccc4F)c(F)cc23)[C@@H](C)C1` [sotorasib], the BWL result in [18] is “insignificant BWL”. Further, the IC50 in data set [13] was more than 1000 nM; in data set [14] it was more than 1000 nM; in [15] it was less than 50 nM; in data set [16] it was more than 1000 nM; in data set [17], 100 to 500 nM; in data set [12] (setting [21]) it was more than 1000 nM.
